Twelve compounds from patent US20250114374A1, “BCL-2 INHIBITORS” (Newave Pharmaceutical Inc., priority 2021, published 2025) can be followed below.

This assay relates to RS4; 11 with G101V mutation. Kind of assay: In vitro anti-proliferation assay (ATPlite luminescence) in BCL-2-dependent ALL cell line RS4;11 with G101V mutation. It is filed as cell-based. The note with it: read-out: RS411-G101V IC50. An outline of the steps: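 RS4;11 G101V cells at about 1×10^4 per well were exposed to a range of compound concentrations for about 72 h in medium with 10% FBS. Cellular ATP was measured by ATPlite luminescence after lysis, and IC50 was derived from the dose-response.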

Where [1] appears, read: cellular anti-proliferative IC50, about 72 hours, medium with 10% FBS, ATPlite.

Like-named read-outs stand apart in the source and are kept apart here.

A word on the IC50: it is the concentration that inhibits the measured activity by half. `CC(C)Oc1ccccc1[C@H]1CN(CC2CCOCC2)CCN1C1CC2(CCN(c3ccc(C(=O)NS(=O)(=O)c4ccc(NCC5CCC(C)(O)CC5)c([N+](=O)[O-])c4)c(N4c5cc6cc[nH]c6nc5O[C@H]5COCC[C@@H]54)c3)CC2)C1` (stereo partly drawn) [Example 159, 2-[(3R,8S)-2,5-dioxa-9,15,17-triazatetracyclo[8.7.0.0^{3,8}.0^{12,16}]heptadeca-1(10),11,13,16-tetraen-9-yl]-4-{2-[(2S)-2-(2-isopropoxyphenyl)-4-(oxan-4-ylmethyl)piperazin-1-yl]-7-azaspiro[3.5]nonan-7-yl}-N-[3-nitro-4-({[(1r,4r)-4-hydroxy-4-methylcyclohexyl]methyl}amino)benzenesulfonyl]benzamide]: under setting [1], the IC50 amounted to 7.5 nM.

As for `CC(C)Oc1ccccc1[C@@H]1CN([C@@H]2CCOc3cc(F)c(F)cc32)CCN1C1CC2(CCN(c3ccc(C(=O)NS(=O)(=O)c4cc5c(c([N+](=O)[O-])c4)N[C@H](C4CCOCC4)CO5)c(N4c5cc6cc[nH]c6nc5O[C@H]5COCC[C@@H]54)c3)CC2)C1` [Example 211, 4-{2-[(2R)-4-[(4R)-6,7-difluoro-3,4-dihydro-2H-1-benzopyran-4-yl]-2-(2-isopropoxyphenyl)piperazin-1-yl]-7-azaspiro[3.5]nonan-7-yl}-2-[(3R,8S)-2,5-dioxa-9,15,17-triazatetracyclo[8.7.0.0^{3,8}.0^{12,16}]heptadeca-1(10),11,13,16-tetraen-9-yl]-N-[(3R)-5-nitro-3-(oxan-4-yl)-3,4-dihydro-2H-1,4-benzoxazin-7-ylsulfonyl]benzamide], under setting [1], the IC50 stood at 87.2 nM.

For the compound `CC(C)Oc1ccccc1[C@@H]1CN(Cc2ccc(F)c(F)c2)CCN1C1CC2(CCN(c3ccc(C(=O)NS(=O)(=O)c4cc5c(c([N+](=O)[O-])c4)N[C@H](C4CCOCC4)CO5)c(N4c5cc6cc[nH]c6nc5O[C@H]5CCOC[C@@H]54)c3)CC2)C1` [Example 240, 4-{2-[(2R)-4-[(3,4-difluorophenyl)methyl]-2-(2-isopropoxyphenyl)piperazin-1-yl]-7-azaspiro[3.5]nonan-7-yl}-2-[(3S,8S)-5,9-dioxa-2,11,13-triazatetracyclo[8.7.0.0^{3,8}.0^{12,16}]heptadeca-1(10),11,14,16-tetraen-2-yl]-N-[(3R)-5-nitro-3-(oxan-4-yl)-3,4-dihydro-2H-1,4-benzoxazin-7-ylsulfonyl]benzamide], the IC50 under setting [1] was found to be 6.94 nM.

For `COc1cc2c(nc1N1CCOC[C@@H]1C)COC[C@H]2N1CCN(C2CC3(CCN(c4ccc(C(=O)NS(=O)(=O)c5cc6c(c([N+](=O)[O-])c5)N[C@H](C5CCOCC5)CO6)c(N5c6cc7cc[nH]c7nc6O[C@H]6COCC[C@@H]65)c4)CC3)C2)[C@H](c2ccccc2OC(C)C)C1` [Example 232, 4-(2-((R)-2-(2-isopropoxyphenyl)-4-((S)-3-methoxy-2-((S)-3-methylmorpholino)-5,8-dihydro-6H-pyrano[3,4-b]pyridin-5-yl)piperazin-1-yl)-7-azaspiro[3.5]nonan-7-yl)-N-(((R)-5-nitro-3-(tetrahydro-2H-pyran-4-yl)-3,4-dihydro-2H-benzo[b][1,4]oxazin-7-yl)sulfonyl)-2-((5aS,9aR)-6,7,9,9a-tetrahydro-1H-pyrano[3,4-b]pyrrolo[3′,2′:5,6]pyrido[3,2-e][1,4]oxazin-5(5aH)-yl)benzamide], the half-inhibitory concentration (IC50) (Homo sapiens, RS4-11, 72 h) is 84.2 nM.

Take `CC(C)Oc1ccccc1[C@@H]1CN(Cc2ccc(F)c(F)c2)CCN1C1CC2(CCN(c3ccc(C(=O)NS(=O)(=O)c4ccc(NCC5CCOCC5)c([N+](=O)[O-])c4)c(N4c5cc6cc[nH]c6nc5O[C@H]5COCC[C@@H]54)c3)CC2)C1` [Example 186, 4-{2-[(2R)-4-[(3,4-difluorophenyl)methyl]-2-(2-isopropoxyphenyl)piperazin-1-yl]-7-azaspiro[3.5]nonan-7-yl}-2-[(3R,8S)-2,5-dioxa-9,15,17-triazatetracyclo[8.7.0.0^{3,8}.0^{12,16}]heptadeca-1(10),11,13,16-tetraen-9-yl]-N-{3-nitro-4-[(oxan-4-ylmethyl)amino]benzenesulfonyl}benzamide]: the IC50 under setting [1] amounted to 10.6 nM.

For `Cc1ccccc1[C@@H]1CN(Cc2ccc(F)c(F)c2)CCN1C1CC2(CCN(c3ccc(C(=O)NS(=O)(=O)c4ccc(NCC5CCOCC5)c([N+](=O)[O-])c4)c(N4c5cc6cc[nH]c6nc5O[C@H]5COCC[C@@H]54)c3)CC2)C1` [Example 164, 4-{2-[(2R)-4-[(3,4-difluorophenyl)methyl]-2-(2-methylphenyl)piperazin-1-yl]-7-azaspiro[3.5]nonan-7-yl}-2-[(3R,8S)-2,5-dioxa-9,15,17-triazatetracyclo[8.7.0.0^{3,8}.0^{12,16}]heptadeca-1(10),11,13,16-tetraen-9-yl]-N-{3-nitro-4-[(oxan-4-ylmethyl)amino]benzenesulfonyl}benzamide], the concentration for half-maximal inhibition (IC50) under setting [1] is 48.5 nM.

Regarding `COc1cc(CN2CCN(C3CC4(CCN(c5ccc(C(=O)NS(=O)(=O)c6ccc(NCC7CCC(C)(O)CC7)c([N+](=O)[O-])c6)c(N6c7cc8cc[nH]c8nc7O[C@H]7COCC[C@@H]76)c5)CC4)C3)[C@@H](c3ccccc3OC(C)C)C2)cnc1N1CCOC[C@@H]1C` (stereo partly drawn) [Example 126, N-((4-((((1r,4r)-4-hydroxy-4-methylcyclohexyl)methyl)amino)-3-nitrophenyl)sulfonyl)-4-(2-((S)-2-(2-isopropoxyphenyl)-4-((5-methoxy-6-((S)-3-methylmorpholino)pyridin-3-yl)methyl)piperazin-1-yl)-7-azaspiro[3.5]nonan-7-yl)-2-((5aS,9aR)-6,7,9,9a-tetrahydro-1H-pyrano[3,4-b]pyrrolo[3′,2′:5,6]pyrido[3,2-e][1,4]oxazin-5(5aH)-yl)benzamide], the IC50 under setting [1] came out at 11.7 nM.

Take `Cc1ccccc1[C@@H]1CN(C2CCC(N3CCOC[C@@H]3C)CC2)CCN1C1CC2(CCN(c3ccc(C(=O)NS(=O)(=O)c4cc5c(c([N+](=O)[O-])c4)N[C@H](C4CCOCC4)CO5)c(N4c5cc6cc[nH]c6nc5O[C@H]5COCC[C@@H]54)c3)CC2)C1` (stereo partly drawn) [Example 203, 4-(2-((R)-4-((1S,4R)-4-((S)-3-methylmorpholino)cyclohexyl)-2-(o-tolyl)piperazin-1-yl)-7-azaspiro[3.5]nonan-7-yl)-N-(((R)-5-nitro-3-(tetrahydro-2H-pyran-4-yl)-3,4-dihydro-2H-benzo[b][1,4]oxazin-7-yl)sulfonyl)-2-((5aS,9aR)-6,7,9,9a-tetrahydro-1H-pyrano[3,4-b]pyrrolo[3′,2′:5,6]pyrido[3,2-e][1,4]oxazin-5(5aH)-yl)benzamide]: the concentration for half-maximal inhibition (IC50) under setting [1] worked out at 68.6 nM.

Turning to `Cc1ccccc1[C@@H]1CN(C2CCC(C)(O)CC2)CCN1C1CC2(CCN(c3ccc(C(=O)NS(=O)(=O)c4cc5c(c([N+](=O)[O-])c4)N[C@H](C4CCOCC4)CO5)c(N4c5cc6cc[nH]c6nc5O[C@H]5COCC[C@@H]54)c3)CC2)C1` (stereo partly drawn) [Example 199, 4-(2-((R)-4-((1r,4R)-4-hydroxy-4-methylcyclohexyl)-2-(o-tolyl)piperazin-1-yl)-7-azaspiro[3.5]nonan-7-yl)-N-(((R)-5-nitro-3-(tetrahydro-2H-pyran-4-yl)-3,4-dihydro-2H-benzo[b][1,4]oxazin-7-yl)sulfonyl)-2-((5aS,9aR)-6,7,9,9a-tetrahydro-1H-pyrano[3,4-b]pyrrolo[3′,2′:5,6]pyrido[3,2-e][1,4]oxazin-5(5aH)-yl)benzamide], the IC50 under setting [1] was 50.4 nM.

Consider `CC(C)Oc1ccccc1[C@@H]1CN([C@H]2CCOc3c2ccc(F)c3F)CCN1C1CC2(CCN(c3ccc(C(=O)NS(=O)(=O)c4cc5c(c([N+](=O)[O-])c4)N[C@H](C4CCOCC4)CO5)c(N4c5cc6cc[nH]c6nc5O[C@H]5COCC[C@@H]54)c3)CC2)C1` [Example 213, 4-{2-[(2R)-4-[(4S)-7,8-difluoro-3,4-dihydro-2H-1-benzopyran-4-yl]-2-(2-isopropoxyphenyl)piperazin-1-yl]-7-azaspiro[3.5]nonan-7-yl}-2-[(3R,8S)-2,5-dioxa-9,15,17-triazatetracyclo[8.7.0.0^{3,8}.0^{12,16}]heptadeca-1(10),11,13,16-tetraen-9-yl]-N-[(3R)-5-nitro-3-(oxan-4-yl)-3,4-dihydro-2H-1,4-benzoxazin-7-ylsulfonyl]benzamide], for which, under setting [1], the concentration for half-maximal inhibition (IC50) worked out at 23.8 nM.

`CC(C)Oc1ccccc1[C@H]1CN(Cc2ccc(N3CCOCC3)nc2)CCN1C1CC2(CCN(c3ccc(C(=O)NS(=O)(=O)c4ccc(NCC5CCC(C)(O)CC5)c([N+](=O)[O-])c4)c(N4c5cc6cc[nH]c6nc5O[C@H]5COCC[C@@H]54)c3)CC2)C1` (stereo partly drawn) [Example 100, 2-[(3R,8S)-2,5-dioxa-9,15,17-triazatetracyclo[8.7.0.0^{3,8}.0^{12,16}]heptadeca-1(10),11,13,16-tetraen-9-yl]-4-{2-[(2S)-2-(2-isopropoxyphenyl)-4-{[6-(morpholin-4-yl)pyridin-3-yl]methyl}piperazin-1-yl]-7-azaspiro[3.5]nonan-7-yl}-N-[3-nitro-4-({[(1r,4r)-4-hydroxy-4-methylcyclohexyl]methyl}amino)benzenesulfonyl]benzamide]: under setting [1], the IC50 turned out to be 16.1 nM.

For `CC(C)Oc1ccccc1[C@@H]1CN(S(=O)(=O)c2ccc(F)c(F)c2)CCN1C1CC2(CCN(c3ccc(C(=O)NS(=O)(=O)c4cc5c(c([N+](=O)[O-])c4)N[C@H](C4CCOCC4)CO5)c(N4c5cc6cc[nH]c6nc5O[C@H]5COCC[C@@H]54)c3)CC2)C1` [Example 245, 4-(2-((R)-4-((3,4-difluorophenyl)sulfonyl)-2-(2-isopropoxyphenyl)piperazin-1-yl)-7-azaspiro[3.5]nonan-7-yl)-N-(((R)-5-nitro-3-(tetrahydro-2H-pyran-4-yl)-3,4-dihydro-2H-benzo[b][1,4]oxazin-7-yl)sulfonyl)-2-((5aS,9aR)-6,7,9,9a-tetrahydro-1H-pyrano[3,4-b]pyrrolo[3′,2′:5,6]pyrido[3,2-e][1,4]oxazin-5(5aH)-yl)benzamide], the IC50 (Homo sapiens, RS4-11, 72 h) came out at 290 nM.
